Results reported in PubChem BioAssay (NCI).
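Five concentrations, 48 hours, 96-well plates. Here, GI50 denotes the concentration required for 50% inhibition of growth. TGI: total growth inhibition.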

Experiments:
Test in all cases: growth of human tumour cells (NCI), 48 h
786-0 renal = system: 786-0 renal
ACHN renal = system: ACHN renal
HOP-92 NSCLC = system: HOP-92 NSCLC
K-562 leukemia = system: K-562 leukemia
KM12 colon = system: KM12 colon
NCI-H226 lung = system: NCI-H226 lung
SK-MEL-28 melanoma = system: SK-MEL-28 melanoma
SK-MEL-5 melanoma = system: SK-MEL-5 melanoma
SN12C renal = system: SN12C renal
UACC-62 melanoma = system: UACC-62 melanoma

SMILES	GI50 (786-0 renal)	TGI (786-0 renal)	GI50 (ACHN renal)	TGI (ACHN renal)	GI50 (HOP-92 NSCLC)	TGI (HOP-92 NSCLC)	GI50 (K-562 leukemia)	TGI (K-562 leukemia)	GI50 (KM12 colon)	TGI (KM12 colon)	GI50 (NCI-H226 lung)	TGI (NCI-H226 lung)	GI50 (SK-MEL-28 melanoma)	TGI (SK-MEL-28 melanoma)	GI50 (SK-MEL-5 melanoma)	TGI (SK-MEL-5 melanoma)	GI50 (SN12C renal)	TGI (SN12C renal)	GI50 (UACC-62 melanoma)	TGI (UACC-62 melanoma)
CC1COCC(C)N1C1=C(Cl)C(=O)c2ccccc2C1=O (stereo not drawn)	3.67 µM	13.5 µM	1.66 µM	3.06 µM	0.554 µM	2.06 µM	2.81 µM	12 µM	12.4 µM	25.4 µM	15.1 µM	31.2 µM	14.2 µM	27.9 µM	6.83 µM	19.9 µM	11.3 µM	23.5 µM	5.85 µM	18.8 µM
N#CC1C=Cc2ccccc2N1C(=O)Oc1ccccc1 (stereo not drawn)	–	> 100 µM	–	> 100 µM	–	> 100 µM	–	> 100 µM	–	> 100 µM	–	> 100 µM	–	> 100 µM	–	> 100 µM	–	> 100 µM	–	> 100 µM
COc1cc2cc3c4c(cc(OC)c(OC)c4c2cc1OC)CCN3C(=O)CCC(=O)NCCCN(C)C	–	> 100 µM	–	> 100 µM	–	64.6 µM	–	> 100 µM	–	> 100 µM	–	> 100 µM	–	> 100 µM	–	28.2 µM	–	> 100 µM	–	> 100 µM
O=C(Nc1ccccc1C(=O)N/N=C(\c1ccccc1)c1ccccn1)c1ccc(F)cc1	0.281 µM	8.44 µM	0.127 µM	–	1.42 µM	> 100 µM	0.519 µM	> 100 µM	0.421 µM	> 100 µM	0.366 µM	–	0.536 µM	> 100 µM	0.22 µM	3.5 µM	0.584 µM	> 100 µM	0.308 µM	2.03 µM
COC(=O)/C(=N/NC(N)=O)C(C(=O)OC)C(=O)C(=O)Nc1ccc(Cl)cc1 (stereo not drawn)	–	> 100 µM	–	> 100 µM	–	> 100 µM	–	> 62.6 µM	–	> 100 µM	–	> 100 µM	–	> 100 µM	–	> 100 µM	–	> 100 µM	–	> 100 µM
CCSC(SCC)=C1C(=O)N(c2ccccc2)N=C1C	–	27 µM	–	29.4 µM	–	20.1 µM	–	23.3 µM	–	35.3 µM	–	29.9 µM	–	26.5 µM	–	33.1 µM	–	30 µM	–	28 µM
COc1ccc(C(O)CC(O)(C(F)(F)F)C(F)(F)F)cc1 (stereo not drawn)	–	> 100 µM	–	> 100 µM	–	44.4 µM	–	53.6 µM	–	> 100 µM	–	> 100 µM	–	> 100 µM	–	36.2 µM	–	60.8 µM	–	87.4 µM
O=S(=O)(c1ccc(O)c(C=Nc2ccc(Cl)cc2)c1)c1ccc(O)c(C=Nc2ccc(Cl)cc2)c1	–	> 100 µM	–	> 100 µM	–	> 100 µM	–	> 100 µM	–	> 100 µM	–	> 100 µM	–	> 100 µM	–	> 100 µM	–	> 100 µM	–	> 100 µM
N=C1C=C(N)C(=O)c2[nH]c(=O)ccc21	–	3.48 µM	–	3.1 µM	–	3.58 µM	–	4.4 µM	–	3.21 µM	–	6.04 µM	–	36.8 µM	–	3.22 µM	–	3.16 µM	–	4.61 µM
CC1(C)OC2C(COS(N)(=O)=O)SC(n3cnc4cncnc43)C2O1 (stereo not drawn)	> 100 µM	> 100 µM	> 100 µM	> 100 µM	> 100 µM	> 100 µM	> 100 µM	> 100 µM	> 100 µM	> 100 µM	> 100 µM	> 100 µM	> 100 µM	> 100 µM	> 100 µM	> 100 µM	> 100 µM	> 100 µM	> 100 µM	> 100 µM
